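Dose response: 5 concentrations. Exposure: 48 h. Format: 96-well plates. Endpoint: linear interpolation; highest concentration if not reached. The concentration for 50% growth inhibition is given as GI50. TGI marks complete inhibition of growth.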
Columns and labels:
Experiment in all cases: NCI tumour cell line growth inhibition, 48 h; in the data active means GI50 below about 0.43 µM; inactive means the rest
[1] = tested on: SF-295 CNS
[2] = tested on: PC-3 prostate
[3] = tested on: LOX IMVI melanoma
[4] = tested on: SK-MEL-5 melanoma
[5] = tested on: NCI-H23 lung
[6] = tested on: UACC-257 melanoma
[7] = tested on: SN12C renal
[8] = tested on: SR leukemia
[9] = tested on: MDA-MB-231 breast
[10] = tested on: T-47D breast
[11] = tested on: SF-268 CNS
[12] = tested on: A549 NSCLC
[13] = tested on: HT29 colon
[14] = tested on: UACC-62 melanoma
[15] = tested on: SW-620 colon
[16] = tested on: COLO 205 colon
[17] = tested on: HOP-92 NSCLC
[18] = tested on: M14 melanoma
[19] = tested on: TK-10 renal
[20] = tested on: HCT-116 colon
[21] = tested on: SF-539 CNS
[22] = tested on: KM12 colon
[23] = tested on: EKVX NSCLC
[24] = tested on: SK-MEL-2 melanoma
[25] = tested on: NCI-H460 lung
[26] = tested on: MALME-3M melanoma
[27] = tested on: OVCAR-5 ovarian
[28] = tested on: SNB-75 CNS
[29] = tested on: CCRF-CEM leukemia
[30] = tested on: 786-0 renal
[31] = tested on: RPMI-8226 leukemia
[32] = tested on: IGROV1 ovarian
[33] = tested on: HL-60(TB) leukemia
[34] = tested on: OVCAR-3 ovarian
[35] = tested on: RXF 393 renal
[36] = tested on: CAKI-1 renal
[37] = tested on: SNB-19 CNS
[38] = tested on: SK-OV-3 ovarian
[39] = tested on: NCI-H226 lung
[40] = tested on: ACHN renal
[41] = tested on: MOLT-4 leukemia
[42] = tested on: DU-145 prostate
[43] = tested on: OVCAR-8 ovarian
[44] = tested on: SK-MEL-28 melanoma
[45] = tested on: U251 CNS
[46] = tested on: K-562 leukemia
[47] = tested on: MCF7 breast
[48] = tested on: HCC-2998 colon
[49] = tested on: OVCAR-4 ovarian
[50] = tested on: HS 578T breast
[51] = tested on: HOP-62 NSCLC
[52] = tested on: MDA-MB-435
[53] = tested on: NCI/ADR-RES ovarian
[54] = tested on: HCT-15 colon
[55] = tested on: UO-31 renal
[56] = tested on: A498 renal
[57] = tested on: NCI-H522 lung

COc1ccc(/C=N/Nc2nc3ccccc3c(=O)n2-c2ccccc2)c(OCc2ccccc2)c1
> 100 µM: TGI [1] | TGI [2] | TGI [3] | TGI [4] | TGI [5] | TGI [6] | TGI [7] | TGI [8] | TGI [9] | TGI [10] | TGI [11] | TGI [12] | TGI [13] | TGI [14] | TGI [15] | TGI [16] | TGI [17] | TGI [18] | TGI [19] | TGI [20] | TGI [21] | TGI [22] | TGI [23] | TGI [24] | TGI [25] | TGI [26] | TGI [27] | TGI [28] | TGI [29] | TGI [30] | TGI [31] | TGI [32] | TGI [33] | TGI [34] | TGI [35] | TGI [36] | TGI [37] | TGI [38] | TGI [39] | TGI [40] | TGI [41] | TGI [42] | TGI [43] | TGI [44] | TGI [45] | TGI [46] | TGI [47] | TGI [48] | TGI [49] | TGI [50] | TGI [51] | TGI [52] | TGI [53] | TGI [54] | TGI [55] | TGI [56] | TGI [57]
inactive: GI50 [28] > 100 µM | GI50 [31] > 100 µM | GI50 [50] > 100 µM

Source: PubChem BioAssay (NCI)
